Source: patent US8299028B2, “Chimeric peptide antagonist for GPCR135 or GPCR142” (Janssen Pharmaceutica NV, priority 2007, dated 2012)

Experiments:
[1] = tested on: satiated Wistar rats; test: Food intake in satiated Wistar rats after i.c.v. administration; type: in vivo, rat; conditions: 10 μg i.c.v.
Description: FIG. 6 illustrates food consumption in satiated Wistar rats during the first hour of the test session (i.e., Day 2) following i.c.v. administration of vehicle (5 μL)+vehicle (5 μL), vehicle (5 μl)+R3/I5 (10 μg), R3(BΔ23-27)R/I5 (10 μg)+vehicle (5 μl), and R3(BΔ23-27)R/I5 (10 μg)+R3/I5 (10 μg) (mean±SEM; n=5-6 per group) (A).
Experimentally naïve, male Wistar rats (Charles River, Wilmington, Mass.) weighing 200-225 grams at the time of arrival were used. The animals were initially housed at two per cage and given a one-week acclimation period to the vivarium prior to i.c.v. cannula implantation. All animals had free access to food and water throughout the experiment and were not food deprived prior to behavioral testing. The animal colony was maintained at 22±2° C. during a 12-hr light/12-hr dark illumination cycle with lights on from 0600 to 1800 hours. […]
A predetermined amount of standard rat chow (Formulab Diet No. 5008, which contained 23.0% protein and 6.5% fat) was placed in the food hopper at the start of the 4 hr session(s). The amount of food remaining in the food hopper was determined by subtracting the weight of the food at 1 and 4 hrs from the initial food weight (i.e., weight of the food at the start of the session). Food crumbs detected on the floor of the apparatus were included in the determination of food weights. […]

[2] = target: T1, endogenous GPCR135 from rat brain slices (Rattus norvegicus, UniProt Q5Y987); test: Autoradiography, displacement of 125I-R3/I5 binding on rat brain slices; conditions: at 10 nM
T1 construct: using endogenous GPCR135 from rat brain slices in autoradiographic studies; from tissue; host or cells: rat brain slices
T1 sequence (Q5Y987 1-469): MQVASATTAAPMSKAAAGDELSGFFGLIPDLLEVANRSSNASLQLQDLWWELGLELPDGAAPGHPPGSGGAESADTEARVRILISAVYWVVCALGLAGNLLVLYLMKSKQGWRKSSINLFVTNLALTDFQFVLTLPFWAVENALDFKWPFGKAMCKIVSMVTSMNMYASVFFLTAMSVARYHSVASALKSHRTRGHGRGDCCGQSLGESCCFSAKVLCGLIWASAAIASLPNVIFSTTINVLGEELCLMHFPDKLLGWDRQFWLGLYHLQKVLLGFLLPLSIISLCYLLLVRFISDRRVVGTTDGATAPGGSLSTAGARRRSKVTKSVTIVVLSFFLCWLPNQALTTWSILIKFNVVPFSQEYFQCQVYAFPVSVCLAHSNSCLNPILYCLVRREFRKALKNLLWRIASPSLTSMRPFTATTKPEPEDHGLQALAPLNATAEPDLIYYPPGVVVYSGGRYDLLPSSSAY
Description: FIG. 5 provides autoradiograms of ^125I-R3/I5 binding sites in the rat brain (A) with competition by relaxin-3 (10 nM, B) or R3(BΔ23-27)R/I5 (10 nM, C), and a dose-response curve for R3(BΔ23-27)R/I5 as the competitor in the binding assay on rat brain slices (D). A dose-response curve for human relaxin-3 is included for comparison (D). Nonspecific binding was determined using 1 μM unlabeled relaxin-3.
R3(BΔ23-27)R/I5 peptide was evaluated pharmacologically using endogenous GPCR135 from rat brain slices in autoradiographic studies as described by Sutton et al., 2004. Briefly, ^125I-R3/I5 was applied in a binding buffer to rat brain slices. Unlabeled human relaxin-3 or R3(BΔ23-27)R/I5 was used at various concentrations as competitors to displace GPCR135 binding of ^125I-R3/I5.

| Substance | total food intake over 4 hours ([1]; 4 hours) | food intake, first hour ([1]; first hour) | displacement of 125I-R3/I5 binding sites in rat brain sections [2] |
| --- | --- | --- | --- |
| R3/I5: Chimeric peptide of relaxin-3 B-chain (SEQ ID NO:12) and INSL5 A-chain (SEQ ID NO:19); selective GPCR135 agonist (beta RAAPYGVRLCGREFIRAVIFTCGGSRW; alpha EDLQTLCCTDGCSMTDLSALC; INSL5 A-chain; listed as Homo Sapiens) | food intake was stimulated | food intake was stimulated |  |
| Relaxin-3: Wild type human relaxin-3, B-chain SEQ ID NO:12, A-chain SEQ ID NO:13; positive control |  |  | Full displacement |
